Reference: patent US20160304957A1, “TREATMENT AND MODULATION OF GENE EXPRESSION AND SKIN AGING” (DSM NUTRITIONAL PRODUCTS LTD., priority 2006, published 2016)

Tests used:
Experiment in all cases: QRT-PCR gene expression in HaCaT cells with or without UVA
Format in all cases: cell-based, human
RARα = test system: RARα
Protocol: (§1) HaCaT cells were obtained from Prof. Fusenig, German Cancer Research Centre, Heidelberg. […] The accuracy of cell counting was approximately 99%.
(§2) On day 3 of the experiment, cells were washed six times with Ca/Mg-free PBS containing 2% BSA, and then irradiated with light with a Hönle sun lamp Sol 500 (Dr. Hönle, Plannegg, Germany) at a dose of 270 kJ/m^2 in Ca/Mg-free PBS (2 hour exposure time at […]). The experimental schedule was chosen because the cells had optimal UVA sensitivity after 48 hours in culture. […] Confluent cultures were much less sensitive to irradiation.
(§3) After irradiation, the cells were supplied with fresh β-carotene-containing serum-free medium and kept in the incubator at 37° C., 5% CO2 until harvest of the samples. In experiments in which the half-life of ^1O2 was prolonged by D2O to enhance its effect, PBS was prepared in D2O, instead of in H2O, as it was done for the standard conditions described above. Cells were washed twice in D2O-PBS prior to irradiation in D2O-PBS. After irradiation, cells were maintained with fresh β-carotene-containing serum-free medium. Sham controls were treated in an identical manner, by placing them under the solar simulator but shielded from light.
(§4) Total RNA was isolated by using Trizol™ (Invitrogen, Basel, Switzerland) according to the instructions of the manufacturer. Random-primed cDNA was synthesized using the Superscript pre-amplification system for first strand cDNA synthesis (Invitrogen).
(§5) cDNA corresponding to 10 ng total RNA was used as template to quantify the relative RNA expression of the genes of interest by TaqMan® real time PCR.
(§6) The PCR analyses were carried out in triplicate and in a multiplex setup, using 18S rRNA as a calibrator gene. The rRNA primers were used at a final concentration of 50 nM, the probe at 100 nM. For quantification of the genes of interest, the primer concentrations were optimized for sensitivity of template detection. […] PCR reactions were carried out for 40 cycles of 95° C. for 15 seconds and 60° C. for 1 minute in an ABI7700 (Applied Biosystems, Rotkreuz, Switzerland). Regulation of gene expression was calculated as described in user bulletin #2 provided by the manufacturer. A threshold cycle (“CT”) is the first PCR cycle in which an amplification signal is detected. Expression levels are given as δCT values. The δCT value describes the level of gene expression as the average PCR cycle, in which the gene of interest was detected first (CT value), subtracted by the CT value of the calibrator gene 18S rRNA (CTgene of interest−CTcalibrating gene), 18S rRNA served as a measure for the amount of template in the reaction. Routinely, 18S rRNA was detected between PCR cycle 12 and 13 (SE=standard error) A low δCT corresponds to a high mRNA level.
(§7) HaCaT cells were pretreated for 2 days with 0.5, 1.5 or 3 μM β-carotene. The cells were irradiated with UVA (270 kJ/m^2) either in D2O-containing PBS or in H2O-containing PBS, to analyze ^1O2 inducibility of genes. Gene expression 5 hours after UVA irradiation was analyzed by QRT-PCR. Values are geometric means±standard error from three independent experiments. Upregulations greater than 1.5-fold are labelled in bold black, downregulations below 0.66-fold are bold grey.

RARγ = test system: RARγ
Protocol: as §1, §2, §3, §4, §5, §6, §7

[1] = test system: β-carotene-9′,10′-oxygenase
Protocol: as §1, §2, §3, §4, §5, §6, §7

SMILES: CC1=C(/C=C/C(C)=C/C=C/C(C)=C/C=C/C=C(C)/C=C/C=C(C)/C=C/C2=C(C)CCCC2(C)C)C(C)(C)CCC1 [β-carotene, All-E-β-carotene]
- basal or UVA-regulated expression level of RARα (RARα): no significant effect
- RARα fold induction (RARα; D2O, UVA/βC 0.5 μM): 1.06 fold
- RARα fold induction (RARα; D2O, UVA/βC 1.5 μM): 1.21 fold
- RARα fold induction (RARα; D2O, UVA/βC 3 μM): 0.52 fold
- RARα fold induction (RARα; D2O, βC 0.5 μM): 1.01 fold
- RARα fold induction (RARα; D2O, βC 1.5 μM): 1.02 fold
- RARα fold induction (RARα; D2O, βC 3 μM): 1.18 fold
- RARα fold induction (RARα; H2O, UVA/βC 0.5 μM): 1.45 fold
- RARα fold induction (RARα; H2O, UVA/βC 1.5 μM): 0.47 fold
- RARα fold induction (RARα; H2O, UVA/βC 3 μM): 0.71 fold
- RARα fold induction (RARα; H2O, βC 0.5 μM): 0.56 fold
- RARα fold induction (RARα; H2O, βC 1.5 μM): 0.67 fold
- RARα fold induction (RARα; H2O, βC 3 μM): 0.55 fold
- basal or UVA-regulated expression level of RARγ (RARγ): no significant effect
- RARγ fold induction (RARγ; D2O, UVA/βC 0.5 μM): 0.63 fold
- RARγ fold induction (RARγ; D2O, UVA/βC 1.5 μM): 0.67 fold
- RARγ fold induction (RARγ; D2O, UVA/βC 3 μM): 0.76 fold
- RARγ fold induction (RARγ; D2O, βC 0.5 μM): 0.94 fold
- RARγ fold induction (RARγ; D2O, βC 1.5 μM): 1.11 fold
- RARγ fold induction (RARγ; D2O, βC 3 μM): 1.12 fold
- RARγ fold induction (RARγ; H2O, UVA/βC 0.5 μM): 0.85 fold
- RARγ fold induction (RARγ; H2O, UVA/βC 1.5 μM): 0.15 fold
- RARγ fold induction (RARγ; H2O, UVA/βC 3 μM): 0.54 fold
- RARγ fold induction (RARγ; H2O, βC 0.5 μM): 0.74 fold
- RARγ fold induction (RARγ; H2O, βC 1.5 μM): 0.86 fold
- RARγ fold induction (RARγ; H2O, βC 3 μM): 0.90 fold
- βC-9′,10′-oxygenase fold induction ([1]; D2O, UVA/βC 0.5 μM): 1.43 fold
- βC-9′,10′-oxygenase fold induction ([1]; D2O, UVA/βC 1.5 μM): 2.30 fold
- βC-9′,10′-oxygenase fold induction ([1]; D2O, UVA/βC 3 μM): 2.19 fold
- βC-9′,10′-oxygenase fold induction ([1]; D2O, βC 0.5 μM): 0.93 fold
- βC-9′,10′-oxygenase fold induction ([1]; D2O, βC 1.5 μM): 1.19 fold
- βC-9′,10′-oxygenase fold induction ([1]; D2O, βC 3 μM): 1.11 fold
- βC-9′,10′-oxygenase fold induction ([1]; H2O, UVA/βC 0.5 μM): 0.75 fold
- βC-9′,10′-oxygenase fold induction ([1]; H2O, UVA/βC 1.5 μM): 0.70 fold
- βC-9′,10′-oxygenase fold induction ([1]; H2O, UVA/βC 3 μM): 0.99 fold
- βC-9′,10′-oxygenase fold induction ([1]; H2O, βC 0.5 μM): 0.90 fold
- βC-9′,10′-oxygenase fold induction ([1]; H2O, βC 1.5 μM): 0.85 fold
- βC-9′,10′-oxygenase fold induction ([1]; H2O, βC 3 μM): 0.76 fold
- β-carotene-9′,10′-oxygenase RNA level ([1]; β-carotene, UVA, D2O treatments): not significantly influenced
